PMC8851771, “Molecular action of larvicidal flavonoids on ecdysteroidogenic glutathione S-transferase Noppera-bo in Aedes aegypti” (BMC Biology, 2022)
Where two headings read alike, the source gives them in different places.

Key:
[1] = test system: DmNobo Asp-113 substituted with Ala; design: method as in PMID 32241910; details: cited from earlier work
[2] = target: T1, DmNobo (Drosophila melanogaster, UniProt Q7JYX0); experiment: GST activity inhibition assay with 3,4-DNADCF, DmNobo; assay type: biochemical
T1 construct: made in house; host or cells: E. coli
T1 sequence (Q7JYX0 whole entry): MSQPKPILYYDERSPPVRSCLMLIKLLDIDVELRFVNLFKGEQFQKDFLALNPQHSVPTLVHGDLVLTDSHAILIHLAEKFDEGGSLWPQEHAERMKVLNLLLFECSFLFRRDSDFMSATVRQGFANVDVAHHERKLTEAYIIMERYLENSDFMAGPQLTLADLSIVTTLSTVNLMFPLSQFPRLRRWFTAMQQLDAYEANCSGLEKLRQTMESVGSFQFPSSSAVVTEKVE

[3] = target: AeNobo-WT (Aedes aegypti, UniProt A0A1S4FIB3); experiment: GST activity inhibition assay with 3,4-DNADCF, wild-type AeNobo; assay type: biochemical
Chain of AeNobo-WT (A0A1S4FIB3 entry or part of it): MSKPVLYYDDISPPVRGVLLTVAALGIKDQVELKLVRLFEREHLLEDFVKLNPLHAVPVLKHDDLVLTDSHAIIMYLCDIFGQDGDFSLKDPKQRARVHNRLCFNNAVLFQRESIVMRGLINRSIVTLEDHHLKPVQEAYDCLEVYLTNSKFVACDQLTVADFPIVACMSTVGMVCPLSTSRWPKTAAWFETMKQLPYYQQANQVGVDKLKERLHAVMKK
Procedure: We prepared a purified AeNobo recombinant protein (220-aa length) using an Escherichia coli protein expression system. The GST enzymatic activity was examined using the fluorogenic artificial substrate 3,4-dinitrobenzamidedichlorofluorescein (3,4-DNADCF).
The IC50 value was measured using an in vitro assay system as described previously. […] Five microliters of each diluted compound solution was mixed with 245 μL of solution A (100 mM sodium phosphate buffer at pH 6.5, 0.01% Tween 20, 2 mM GSH, and 50 ng/mL AeNobo-WT, 100 ng/mL AeNobo-E113A, and 200 ng/mL F39L). One hundred microliters of the mixture was dispensed into wells of a 96-well plate. One hundred microliters of solution B (0.2 μM 3,4-DNADCF and 100 mM sodium phosphate buffer at pH 6.5) was added to each well. In summary, the final reaction system comprised 100 mM sodium phosphate buffer (pH 6.5), 1 mM GSH, 0.005% Tween 20, 0.1 μM 3,4-DNACDF, and 25 ng/mL AeNobo, 50 ng/mL AeNobo-E113A, or 100 ng/mL AeNobo-F39L protein. The fluorescence intensity derived from 4-GS-3-NADCF, a product of this reaction, was measured for 3 min. IC50 values were estimated as described previously. The enzymatic assays under each condition were performed at least twice independently.
To identify inhibitors of AeNobo enzymatic activity, a high-throughput screening was performed as described in a previous study. Briefly, a core library of 9600 compounds obtained from the Drug Discovery Initiative, The University of Tokyo, was utilized for screening. In this screen, the enzymatic activity of AeNobo was detected using 3,4-DNADCF [29]. […] Then, 1 μL of solution B (4 μM 3,4-DNADCF, 100 mM sodium phosphate at pH 6.5, and 0.005% Tween 20) was added into each well. In summary, the reaction system comprised 5.6 ng/mL AeNobo protein, 2 μM 3,4-DNADCF, 1 mM GSH, 0.005% Tween 20, and 100 mM sodium phosphate at pH 6.5, together with each compound at 10 μM. The plate was incubated for 30 min at 25–27 °C and 2 μL of 10 mM N-ethylmaleimide was added into each well to stop the reaction. […] For the second screen, we assayed the IC50 values of the compounds against the enzymatic activity of AeNobo.

[4] = target: T1, DmNobo; details: read-out: IC50 against DmNobo; cited from earlier work
[5] = target: AeNobo-F39L (Aedes aegypti, UniProt A0A1S4FIB3, F90L); experiment: GST activity inhibition assay with 3,4-DNADCF, AeNobo-F39L; assay type: biochemical
Chain of AeNobo-F39L (A0A1S4FIB3 entry or part of it F90L): as the sequence (A0A1S4FIB3 entry or part of it) above, with F39L counted along it
Procedure: (§1) pCold III plasmids expressing the AeNobo-E113A and AeNobo-F39L were constructed using KOD-Plus-Mutagenesis Kit (Toyobo). The following primers were used: E113A-F (5′-[…]-3′) and E113A-R (5′-[…]-3′) for AeNobo-E113A and F39L-F (5′-[…]-3′) and F39L-R (5′-[…]-3′) for AeNobo-F39L. We conducted inverse PCR using KOD-plus polymerase, pColdIII/AeNobo-WT plasmid, and the primer pair described above under the following conditions: pre-denaturation at 94 °C for 2 min, denaturation at 98 °C for 10 s, and extension at 68 °C for 6 min for 6 cycles. The PCR products were treated with DpnI at 37 °C for 1 h, followed by self-ligation using T4 polynucleotide kinase and Ligation High. After the transformation of DH5α bacteria using the ligation products, we extracted plasmid DNA from the colonies and verified their sequences to confirm whether the appropriate point mutations were introduced.
The IC50 value was measured using an in vitro assay system as described previously. A dilution series of compounds, ranging from 2.5 mM to 0.127 μM for DMG and from 2.5 mM to 4.9 μM for other compounds, was prepared by 2-fold serial dilution in DMSO. […] The fluorescence intensity derived from 4-GS-3-NADCF, a product of this reaction, was measured for 3 min. […]

[6] = target: AeNobo-E113A (Aedes aegypti, UniProt A0A1S4FIB3, E164K); experiment: GST activity inhibition assay with 3,4-DNADCF, AeNobo-E113A; assay type: biochemical; details: at a concentration of 25 μM
Chain of AeNobo-E113A (A0A1S4FIB3 entry or part of it E164K): as the sequence (A0A1S4FIB3 entry or part of it) above, with E113K counted along it
From the text: The importance of the Glu-113–flavonoid hydrogen bond for flavonoid binding was biochemically examined with a recombinant mutated AeNobo protein carrying an E113A aa substitution (AeNobo-E113A).
as §1
The IC50 value was measured using an in vitro assay system as described previously. A dilution series of compounds, ranging from 2.5 mM to 0.127 μM for DMG and from 2.5 mM to 4.9 μM for other compounds, was prepared by 2-fold serial dilution in DMSO. Five microliters of each diluted compound solution was mixed with 245 μL of solution A (100 mM sodium phosphate buffer at pH 6.5, 0.01% Tween 20, 2 mM GSH, and 50 ng/mL AeNobo-WT, 100 ng/mL AeNobo-E113A, and 200 ng/mL F39L). One hundred microliters of the mixture was dispensed into wells of a 96-well plate. One hundred microliters of solution B (0.2 μM 3,4-DNADCF and 100 mM sodium phosphate buffer at pH 6.5) was added to each well. In summary, the final reaction system comprised 100 mM sodium phosphate buffer (pH 6.5), 1 mM GSH, 0.005% Tween 20, 0.1 μM 3,4-DNACDF, and 25 ng/mL AeNobo, 50 ng/mL AeNobo-E113A, or 100 ng/mL AeNobo-F39L protein. The fluorescence intensity derived from 4-GS-3-NADCF, a product of this reaction, was measured for 3 min. IC50 values were estimated as described previously. The enzymatic assays under each condition were performed at least twice independently.

[7] = test system: D. melanogaster 1st instar larvae; experiment: Drosophila melanogaster survival assay; assay type: in vivo; details: 10 ppm in food
Procedure: We also conducted larvicidal assays using D. melanogaster. When we placed D. melanogaster 1st instar larvae in food containing 10 ppm DMG, pupariation rate and pupation timing were not affected when compared with a control group (Additional file 1: Figure S10). […] A […] DMG stock solution was prepared in 100% DMSO. Ten microliters of the DMG stock solution or 10 μL of DMSO alone was mixed with 10 g of standard cornmeal medium and 1 mL of autoclaved water. The volume of the mixed food was approximately 10 mL, and therefore, the food contained 0.1% DMSO with or without 10 ppm DMG. Two grams of the food were dispensed into each 12-mL plastic vial (Sarstedt). D. melanogaster wild-type Canton-S were given the opportunity to lay eggs on a grape juice agar with yeast paste for 12 h. After egg collection, the embryos were reared at 25 °C for 24 h, and then 20 1st instar larvae were transferred to each vial and reared at 25°C. The numbers of pupae were counted daily, and the timing of pupation was recorded.

[8] = test system: estrogen receptors (ERs); details: does not promote ER binding activity to estrogen response elements; cited from earlier work
[9] = test system: Ae. aegypti 1st instar larvae; experiment: Aedes aegypti larvicidal assay; assay type: in vivo; details: above 10 ppm, 24-h treatment
Procedure: To test this, we conducted larvicidal assays using Ae. aegypti larvae.
The dried eggs on filter papers were soaked in distilled water. Three hours after soaking, the first instar larvae were transferred to 30 mL of fresh distilled water in a 50-mL plastic cup with a lid containing air holes. In the rearing water, 2 mg of the powdered goldfish food (Hikari Medium Grain, Kyorin Co., Ltd.) was added to each cup as food for Ae. aegypti larvae. In each cup, we poured the 30 mL rearing water containing 1 ppm, 10 ppm, or 100 ppm of the compounds with 0.1% ethanol at the final concentration, followed by placing 20 larvae. Twenty-four hours after the addition of flavonoids, the number of living and dead larvae was recorded. Larvacidal assays under each condition were performed 5 times independently. The larval instars 24 h after the addition of DMG were identified by measuring the transverse diameter of the Ae. aegypti larval head. Photographs of whole bodies of larvae were taken and the head diameter was then measured using ImageJ software.

Structure (SMILES) | Inhibition of enzymatic activity of DmNobo with Asp-113 substituted with Ala [1] | IC50 [2] [µM] | IC50 against AeNobo relative to that against DmNobo ([3]; higher against AeNobo) | IC50 ([3]; text and figures, 3,4-DNADCF, read-out: IC50 against AeNobo (WT)) [µM] | IC50 [4] [µM] | IC50 [5] [µM] | Inhibition of enzymatic activity of AeNobo-E113A [6] | Development to adults [7] | Pupariation rate and pupation timing compared with control ([7]; 1st instar larvae) | Estrogenic activity [8] | IC50 ([3]; read-out: IC50 (μM) (mean ± s.d.)) [µM] | Lethality [9]
C[C@]12CC[C@@H]3c4ccc(O)cc4CC[C@H]3[C@@H]1CC[C@@H]2O [17β-estradiol] | does not inhibit | 2.33 ± 0.08 | approximately 10 fold | 21.3 | 1.2 to 2.3 | – | – | – | – | – | – | –
O=c1c(-c2ccc(O)cc2)coc2cc(O)c(O)cc12 [Desmethylglycitein, 4′,6,7-trihydroxyisoflavone] | – | – | – | – | – | 1.16 | not inhibited | most larvae became adults | not affected | does not exhibit estrogenic activity | 0.293 ± 0.012 | high lethality
